Molecules are shown by their SMILES.

Assay [1] addresses T1, multidrug resistance-associated protein 2 (MRP2) (Homo sapiens, UniProt Q92887). Details: gene ABCC2.
The target of assay [2] is T1, multidrug resistance-associated protein 2 (MRP2). The assay can be described thus: inhibition of ATP-dependent platinum uptake (oxaliplatin […]) in MRP2-expressing membrane vesicles, ICPMS; […] reduction at […]. In kind it is cell-based. Details: gene ABCC2; human MRP2 in inside-out Sf9 membrane vesicles.
Assay [3] shares this target. The assay can be described thus: inhibition of ATP-dependent platinum uptake (oxaliplatin […]) in MRP2-expressing membrane vesicles, ICPMS. The format is biochemical. Details: gene ABCC2; human MRP2 in inside-out Sf9 membrane vesicles.

T1 sequence (Q92887 whole entry): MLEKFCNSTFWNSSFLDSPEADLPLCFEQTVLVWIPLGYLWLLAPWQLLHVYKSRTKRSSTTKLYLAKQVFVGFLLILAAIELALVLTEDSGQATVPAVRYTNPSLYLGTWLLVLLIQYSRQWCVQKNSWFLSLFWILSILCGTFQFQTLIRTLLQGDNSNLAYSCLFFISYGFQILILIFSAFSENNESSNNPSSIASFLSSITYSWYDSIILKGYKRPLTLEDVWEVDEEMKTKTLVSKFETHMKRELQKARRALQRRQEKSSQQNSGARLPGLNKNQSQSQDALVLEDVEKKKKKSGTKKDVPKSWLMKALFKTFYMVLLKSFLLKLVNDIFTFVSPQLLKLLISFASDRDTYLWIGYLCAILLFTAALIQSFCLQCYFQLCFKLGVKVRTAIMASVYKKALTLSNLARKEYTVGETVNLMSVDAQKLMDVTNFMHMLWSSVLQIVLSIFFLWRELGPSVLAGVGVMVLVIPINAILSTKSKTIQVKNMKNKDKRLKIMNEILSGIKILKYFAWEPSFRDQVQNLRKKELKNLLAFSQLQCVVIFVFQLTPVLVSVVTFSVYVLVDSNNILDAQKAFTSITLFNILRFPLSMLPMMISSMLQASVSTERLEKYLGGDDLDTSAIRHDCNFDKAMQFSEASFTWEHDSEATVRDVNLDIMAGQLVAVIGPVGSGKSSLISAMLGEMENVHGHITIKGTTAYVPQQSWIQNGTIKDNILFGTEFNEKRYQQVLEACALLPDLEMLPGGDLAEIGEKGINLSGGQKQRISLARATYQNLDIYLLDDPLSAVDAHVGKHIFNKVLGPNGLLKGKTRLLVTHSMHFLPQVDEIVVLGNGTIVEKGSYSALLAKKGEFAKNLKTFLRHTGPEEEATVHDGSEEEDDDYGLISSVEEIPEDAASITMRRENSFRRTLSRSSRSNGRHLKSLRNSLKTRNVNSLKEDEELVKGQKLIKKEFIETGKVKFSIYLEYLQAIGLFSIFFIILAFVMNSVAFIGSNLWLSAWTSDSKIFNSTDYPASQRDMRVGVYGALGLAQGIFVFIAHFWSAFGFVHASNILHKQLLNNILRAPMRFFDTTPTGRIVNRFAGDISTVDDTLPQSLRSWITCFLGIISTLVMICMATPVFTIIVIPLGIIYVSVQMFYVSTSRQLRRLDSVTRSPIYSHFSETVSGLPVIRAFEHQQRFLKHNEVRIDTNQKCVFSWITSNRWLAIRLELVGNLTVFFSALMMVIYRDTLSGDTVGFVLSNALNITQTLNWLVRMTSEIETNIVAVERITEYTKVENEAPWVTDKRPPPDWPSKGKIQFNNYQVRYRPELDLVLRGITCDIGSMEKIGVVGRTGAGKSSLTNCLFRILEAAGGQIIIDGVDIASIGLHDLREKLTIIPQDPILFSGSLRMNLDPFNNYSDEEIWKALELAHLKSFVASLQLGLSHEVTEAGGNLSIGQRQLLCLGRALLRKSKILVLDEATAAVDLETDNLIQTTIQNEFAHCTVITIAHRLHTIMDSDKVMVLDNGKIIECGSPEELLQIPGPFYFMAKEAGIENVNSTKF

`O=C1[O][Pt]2([NH][C@@H]3CCCC[C@H]3[NH]2)[O]C1=O` [oxaliplatin]: the Km in assay [1] came out at 301 µM.

`CN(C)C(=O)CCSC(SCCC(=O)O)c1cccc(/C=C/c2ccc3ccc(Cl)cc3n2)c1` (stereo not drawn) [MK571]: the inhibition at 100 µM in assay [2] came to 96%.

In assay [3], `O=c1c(O)c(-c2cc(O)c(O)c(O)c2)oc2cc(O)cc(O)c12` [myricetin] showed an IC50 of 10 to 100 µM.
